According to patent US7098364B2, “Phenylethanolamine compounds as β2-receptor agonists, and methods of use and preparation thereof” (Shenyang Pharmaceutical University, priority 2001, dated 2006):

Tested on: isolated guinea pig trachea strips
Assay: Antagonistic effect on histamine-induced bronchoconstriction in isolated guinea pig trachea strips
Format: cell-based
Settings: trachea strips contracted by histamine (10^-6-10^-4 M) to 50% of maximum contraction; compounds at 10^-6 or 3×10^-4 M; Krebs-Hensleit solution, 37° C.
Experimental: The antagonistic effects of bronchoconstrtriction induced by histamine of the compounds of the present invention were evaluated by isolated guinea pig trachea strips.
Apparatus: polygrapher recorder, strain gauge transducer
Conditions: Krebs-Hensleit solution; gas mixture(95% O2, 5% CO2); Paper speed: 4 mm/min; 37° C.
Animals: guinea pigs (Harley, purchased from the Experimental Animal Center of China Medical University) of either sex weighting 350–500 g were used.
Reagent: Histamines phosphate solution(10^−6–10^−4M)
Method: Guinea pigs were sacrificed and the trachea strips(2 cm×3 mm) were prepared; the preparation was then mounted under a testing tension of 2 g in an organ bath containing 10 mL Kebs-Hensleits solution at 37° C. and superfused with the gas mixture mentioned above and the preparation was allowed to equilibrate for 2 h before the addition of histamine. When the tension of trachea strips reached 50% of the maximum contraction, the tested compounds was added to bath, and the antagonistic effect (represented as relaxing rate) was calculated as below: Relaxing rate=(Contraction intensity after histamine addition-Contraction intensity after tested compounds addition)/[…]×100%

In the case of `CC(C)NC(CO)c1cc(Cl)c(N)c(C(F)(F)F)c1.Cl` (stereo not drawn), the “Relaxing rate (%)” value is reported as 52.5%.
`Cl.Nc1c(Br)cc(C(CO)NC2CC2)cc1C(F)(F)F` (stereo not drawn) was tested, and the “Relaxing rate (%)” value was 10.2%.
`Cl.N#Cc1cc(C(CO)NC2CCC2)cc(Cl)c1N` (stereo not drawn) was tested, and the “Relaxing rate (%)” value was 36.7%.
`CC(C)NC(CO)c1cc(Br)c(N)c(C#N)c1.Cl` (stereo not drawn) was tested, and the “Relaxing rate (%)” value was 77.6%.
In the case of `Cl.Cl.N#Cc1cc(C(CO)NC2CCC2)cc(Br)c1N` (stereo not drawn), the “Relaxing rate (%)” value is reported as 30.8%.
In the case of `Cl.N#Cc1cc(C(CO)NC2CCC2)ccc1N` (stereo not drawn), the “Relaxing rate (%)” value is reported as 18.9%.
With `CC(C)NC(CO)c1ccc(N)c(C#N)c1.Cl` (stereo not drawn) the “Relaxing rate (%)” value was 60.3%.
For `Cl.Nc1c(Br)cc(C(CO)NC2CCC2)cc1C(F)(F)F` (stereo not drawn), the “Relaxing rate (%)” value was 12.9%.
`CC(C)(CO)NC(CO)c1cc(Cl)c(N)c(C(F)(F)F)c1.Cl` (stereo not drawn) was tested, and the “Relaxing rate (%)” value was 85.1%.
In the case of `CC(C)(CO)NC(CO)c1cc(Br)c(N)c(C(F)(F)F)c1.Cl` (stereo not drawn), the “Relaxing rate (%)” value is reported as 128.2%.
`CC(C)(CO)NC(CO)c1cc(Cl)c(N)c(C#N)c1.Cl.Cl` (stereo not drawn) was tested, and the “Relaxing rate (%)” value was 15.3%.
With `CC(C)(C)NC(CO)c1ccc(N)c(C(F)(F)F)c1.Cl` (stereo not drawn) the “Relaxing rate (%)” value was 55.6%.
In the case of `Cl.Cl.N#Cc1cc(C(CO)NC2CC2)ccc1N` (stereo not drawn), the “Relaxing rate (%)” value is reported as 15.7%.
`CC(C)(CO)NC(CO)c1cc(Br)c(N)c(C#N)c1.Cl` (stereo not drawn) was tested, and the “Relaxing rate (%)” value was 89.6%.
For `CC(C)(CO)NC(CO)c1ccc(N)c(C#N)c1.Cl` (stereo not drawn), the “Relaxing rate (%)” value was 65.3%.
For `Br.CC(C)(C)NC(CO)c1cc(Cl)c(N)c(C(F)(F)F)c1` (stereo not drawn), the “Relaxing rate (%)” value was 165.9%.
In the case of `CC(C)NC(CO)c1cc(Cl)c(N)c(C#N)c1.Cl.Cl` (stereo not drawn) [drawing 7], the “Relaxing rate (%)” value is reported as 69.2%.
With `CC(C)NC(CO)c1cc(Cl)c(N)c(C#N)c1.Cl.Cl` (stereo not drawn) [drawing 20] the “Relaxing rate (%)” value was 70.5%.
